A melting point compilation (Tetko et al.; mined from patent text by program, amines drawn as free bases though some values may be those of a salt)

`CC1(C)OCC(CO)(CO)CO1` showed a melting point of 124 to 126 °C.
Work on `CC(=O)Nc1ccc2c(c1)OCO2` yielded a melting point of 138 to 139 °C.
With `CC1(C2CCCC2)Cc2cc(OCC(=O)O)c(Cl)c(Cl)c2C1=O` (stereo not given) the melting point was 113 to 114 °C.
`C#CCOC(=O)C=CC(=O)OCC#C` gave a melting point of 78 to 80 °C.
`CCN(CC)S(=O)(=O)c1cc(-c2csc(=Nc3ccccc3C)n2C)ccc1Cl` gave a melting point of 166 °C.
`Cc1ncn(-c2ccc([N+](=O)[O-])cc2F)n1` showed a melting point of 105 to 107 °C.
Work on `O=C1OC(c2ccccc2)CC(O)=C1SCc1ccccc1` (stereo not given) yielded a melting point of 150 to 152 °C.
With `CCC(=CC(CNC(=O)c1c(C)noc1C)=NO)C(C)[N+](=O)[O-]` (stereo not given) the melting point was 100 to 103 °C.
For `C#CCNC(=O)C(c1ccccc1)c1ccccc1`, the melting point was 131 °C.
Molecule `O=C(NN=C1c2ccc(F)cc2CC1(O)c1ccc(F)cc1)Nc1ccc(Br)cc1` (stereo not given) has a melting point of 235 to 237 °C.
`Cc1ccnc(Sc2nc(C)c(CC(=O)O)s2)c1C(=O)O` gave a melting point of 208 to 210 °C.
`Cc1c(CCBr)c2cccc3c2n1CCS3` gave a melting point of 94 °C.
With `O=c1[nH]c(=O)n(CCCCBr)c2ccccc12` the melting point was 152 to 153 °C.
`CCCSC1=Nc2ccccc2SN1` gave a melting point of 168 to 170 °C.
`CCN(CC)C(=O)Nc1ccc(NCc2ccccc2Cl)cc1N` gave a melting point of 153 to 155 °C.
Work on `CCc1cnc2c(NC(=O)c3c(Cl)cccc3Cl)cccc2c1C(C)=O` yielded a melting point of 194 to 195 °C.
In the case of `Cc1ccc(S(=O)(=O)Nc2ccc(C(=O)CN3CCN(c4ccncc4)CC3)cc2)cc1`, the melting point is reported as 168 to 170 °C.
Molecule `Clc1ccc2c(c1)N=C(NCc1cccnc1)c1ccccc1O2` has a melting point of 167 to 169 °C.
With `Cc1cc(-c2cc3cc(OCCNC[C@H](O)COc4ccccc4F)ccc3o2)no1` the melting point was 118 to 121 °C.
In the case of `O=C(N[C@H](Cc1ccc(F)cc1)[C@@H](O)c1ccc(F)cc1)c1cccc2ccccc12` (racemic), the melting point is reported as 199 to 200 °C.
`COc1nc(OC)c2cc(CBr)ccc2n1` gave a melting point of 138 to 143 °C.
With `O=C(Cc1ccccc1)N1CCC2(Cc3ccccc3O2)C1` (stereo not given) the melting point was 98 to 99 °C.
With `COc1ccc(Cc2nc3cccc(NCc4cccnc4)c3o2)cc1OC1CCCC1` the melting point was 90 to 92 °C.
With `CCOC(=O)C1=CNC(COCCN)=C(C(=O)OC)C1c1cccc(Cl)c1Cl` (stereo not given) the melting point was 131 to 132 °C.
Molecule `CCC(C)N1C(=O)c2ccccc2Oc2ncccc21` (stereo not given) has a melting point of 137 to 138 °C.
For `C=C(CCl)C(C(=O)OC(c1ccccc1)c1ccccc1)N1C(=O)C2N=C(Cc3ccccc3)OC21` (stereo not given), the melting point was 82 to 83 °C.
For `C[C@]1(COC(=O)N2CCc3cc(Cl)ccc32)Cn2cc([N+](=O)[O-])nc2O1`, the melting point was 189 to 191 °C.
Molecule `O=C(C=Cc1ccc2c(c1)OCO2)N1CCc2c([nH]c3ccccc23)C1c1ccc2c(c1)OCO2` (stereo not given) has a melting point of 233 °C.
With `COc1cccc(CCNC2(c3ccccc3Cl)C(=O)Nc3ccc(Cl)cc32)c1` (stereo not given) the melting point was 155 to 160 °C.
In the case of `C[C@H](N)Cn1ncc2ccc3oc(C(=O)NCC4(O)CC4)cc3c21`, the melting point is reported as 77 to 79 °C.
`Cn1nc(O)c(Cl)c1Cl` gave a melting point of 212 to 216 °C.
With `CCN1CCCC1CNC(=O)c1cc(S(=O)(=O)CC)cc2c1OCCO2` (stereo not given) the melting point was 111 to 122 °C.
With `Cc1ccc(S(=O)(=O)N2N=C(c3ccccc3)CC3CCCC32)cc1` (stereo not given) the melting point was 171 to 176 °C.
In the case of `NC(=O)N(O)Cc1ccc(-c2ccccn2)s1`, the melting point is reported as 168 °C.
`O=c1c2cc([N+](=O)[O-])ccc2nc2n1CS(=O)(=O)N2` gave a melting point greater than 300 °C.
`CC(C)(O)Cn1c(CO)nc2c(N)nc3cc(-c4cccc(CO)c4)cnc3c21` showed a melting point of 227 to 229 °C.
For `COc1cc2c(c(OC(=O)Cc3ccccc3)c1OC)=NC(=O)C(=O)N=2`, the melting point was 298 to 300 °C.
`CCCCCN1C(=O)C2(COc3cc(-c4ccncc4)ccc32)c2ccccc21` (stereo not given) showed a melting point of 107 to 110 °C.
For `COc1ccc2[nH]c(C(F)(F)F)cc2c1`, the melting point was 60 °C.
Work on `Cc1cc(CCCCCCCOc2ccc(C3=NCCO3)cc2)on1` yielded a melting point of 89 to 90 °C.
For `O=S1(=O)c2cccc3cccc(c23)N1CCCN1CCN(c2ccc(F)cc2)CC1`, the melting point was 95 to 97 °C.
Molecule `O=C(NCCN1CCN(c2cccc(Cl)c2)CC1)c1nsc2ccccc12` has a melting point of 115 to 117 °C.
Work on `CON=C1CCCc2cc(OCCCOc3c(Cl)cc(OCC=C(Cl)Cl)cc3Cl)ccc21` yielded a melting point of 75 to 77 °C.
In the case of `Cc1ccc(S(=O)(=O)NC(Cc2ccccc2)C(=O)Nc2c(C(C)C)cccc2C(C)C)cc1` (stereo not given), the melting point is reported as 183 to 184 °C.
For `CN1CC=C(c2c[nH]c3ccc(NC(=O)c4ccc(F)cc4Cl)cc23)CC1`, the melting point was 212 to 222 °C.
Molecule `CCCCN(CCCC)c1ccc(C=CC2=CC(=CC=CC3=C(C#N)C(=C(C#N)C#N)OC3(c3ccccc3)C(F)(F)F)CC(C)(C)C2)c(OC)c1` (stereo not given) has a melting point of 164 to 166 °C.
Work on `CC(Sc1ccccc1)n1cc(C2=C(c3cn(C(C)Sc4ccccc4)c4ccccc34)C(=O)NC2=O)c2ccccc21` (stereo not given) yielded a melting point of 102 to 105 °C.
Work on `CCN(CC)CCNC(=O)c1cc2cc(I)ccc2[nH]1` yielded a melting point of 208 to 210 °C.
In the case of `COC(=O)CCCS(=O)(=O)c1ccc(C)cc1`, the melting point is reported as 23 °C.
With `CCOc1cc(I)cc(OCC)c1OCC` the melting point was 44 to 46 °C.
`COC(=O)c1ccc(C(=O)NS(=O)(=O)c2ccc(OC(F)(F)F)cc2)cn1` showed a melting point of 221 to 223 °C.
`CCN(c1nc(C)cc(-c2ccccc2C(F)(F)F)n1)c1c(Br)cc(N(C)C)cc1OC` gave a melting point of 157 to 158 °C.
With `CC(C)c1ccc(-n2ccn(-c3cccc(C(=O)O)c3)c2=O)cc1` the melting point was 283 to 285 °C.
`NC(=S)Nc1cc(Cl)ccc1N1CCOCC1` showed a melting point of 174 to 175 °C.
With `COc1cc(Br)c(/C=C/c2cc(/C=C/c3ccc4cc[nH]c4c3)[nH]n2)cc1O` the melting point was 137 to 142 °C.
`COCCOc1cc2ncc(C#N)c(O)c2cc1OCc1ccccc1` showed a melting point greater than 250 °C.
For `Clc1ccc(CN2CCC(c3cc(-c4cccc(Cl)c4)[nH]n3)CC2)cc1`, the melting point was 156 to 157 °C.
For `COc1ccc(S(=O)(=O)n2ccc3ccnc(-c4ccc(C(F)(F)F)cc4)c32)cc1`, the melting point was 143 to 145 °C.
With `O=C(O)C(=O)c1ccc(OCCOc2ccc3ccccc3c2)c(Cl)c1` the melting point was 167 to 168 °C.
Work on `CC(=O)NC[C@H]1CN(c2ccc(N3CCC4(CC3)CC4=S=O)c(F)c2)C(=O)O1` yielded a melting point of 78 to 80 °C.
Molecule `Cc1oc2cc(C3CC(=O)OC(=O)C3)ccc2c1C` has a melting point of 145 to 147 °C.
`COC(=O)c1cccc(OCc2ncc3ccccc3n2)c1` showed a melting point of 78 to 80 °C.
In the case of `CC(/C=C/c1ccccc1-c1ccc2c(c1)C(C)(C)CCC2(C)C)=C\C(=O)O`, the melting point is reported as 178 to 179 °C.
`Cc1cc(C2=NOC(c3cc(Cl)cc(Cl)c3)(C(F)(F)F)C2)ccc1C(=O)Nc1ncccn1` (stereo not given) gave a melting point of 122 to 124 °C.
With `CCSC(=O)OCOC(=O)c1ccco1` the melting point was 37.2 to 38.4 °C.
Work on `COC(=O)COC(=O)COc1ccc(-c2coc3cc(OCC(=O)OCC(=O)OC)ccc3c2=O)cc1` yielded a melting point of 111 to 114 °C.
Molecule `CCCCCNc1cccc2c1C(=O)N(C1CCC(=O)NC1=O)C2=O` (stereo not given) has a melting point of 141 to 143 °C.
For `O=C(O)COc1ccc(-c2c3ccccc3cc3sc4cc(OCC(=O)O)ccc4c23)cc1`, the melting point was 220 to 222 °C.
`CCOC(=O)c1cccc(NC(=O)C(COS(C)(=O)=O)NS(=O)(=O)c2ccc(Cl)cc2)c1` (racemic) gave a melting point of 125 to 129 °C.
Molecule `CC(C)(C)OC(=O)N1CCC[C@H](O)[C@@H]1c1ccccc1` has a melting point of 66 to 67 °C.
`COc1ccc(O)c2c1C(C)(C)CCC2(C)C` showed a melting point of 127 °C.
`CC(C)(C)c1nc(C=C2CCOC2=O)nc(C(C)(C)C)c1O` gave a melting point of 158 to 160 °C.
With `COc1ccccc1-n1c(=O)[nH]c2c(C(N)=O)nc(-c3cccc([N+](=O)[O-])c3)nc21` the melting point was 295 to 296 °C.
In the case of `O=C(O)Cc1cccc2c(=O)cc(-c3c(F)cccc3F)oc12`, the melting point is reported as 178 to 180 °C.
`O=C(O)Cc1cnn(-c2ccc(Cl)cc2)c1-c1ccc(Cl)cc1` gave a melting point of 195 to 196 °C.
In the case of `C=CCSc1nc(N)nc2c1ncn2[C@@H]1C[C@H](CO)[C@@H](O)C1`, the melting point is reported as 133 to 134 °C.
With `Cc1noc2cc3c(cc12)C1(CO3)C(=O)N(CCC(C)C)c2ccccc21` (stereo not given) the melting point was 135 to 138 °C.
`CC(=O)NS(=O)(=O)c1ccc2ccc(Oc3c(Cl)cc(C(F)(F)F)cc3Cl)cc2c1` showed a melting point of 137 °C.
For `CC(=NNc1ccc([N+](=O)[O-])cc1)N1CCOCC1`, the melting point was 176 °C.
Molecule `CCN(CC)C1CCN(c2cccc(-c3cnn4c(N)c(-c5ccc(F)cc5)c(C)nc34)c2)CC1` has a melting point of 208 to 210 °C.
`CSc1ccc(C)cc1[N+](=O)[O-]` gave a melting point of 71 to 73 °C.
`C=CCONc1nc(NC=O)nc(Cl)c1NC=O` showed a melting point of 170 to 181 °C.
With `OCCC(O)OCn1cc(Br)c2c(Cl)ncnc21` (stereo not given) the melting point was 152 °C.
Work on `Cc1ccc(NC(=O)c2ccc(CN3CCNC(C(N)=O)C3)c(C(F)(F)F)c2)cc1Nc1nccc(-c2cncnc2)n1` (stereo not given) yielded a melting point of 235 to 238 °C.
Work on `CC#Cc1ccccc1S(N)(=O)=O` yielded a melting point of 147 to 149 °C.
With `O=C(Nc1ccccc1-c1nnn[nH]1)C(=O)N1CCC(Cc2ccc(F)cc2)CC1` the melting point was 107 to 109 °C.
In the case of `CC(C)(C)C=C/C=C/C(C)(C)C`, the melting point is reported as 78 to 79 °C.
With `FC(F)(F)C1(C(F)(F)F)c2ccccc2Oc2ccccc21` the melting point was 74 to 75 °C.
With `Cn1c2cc(Cl)ccc2c2c(CC#N)nn(-c3ccccc3)c(=O)c21` the melting point was 305 to 315 °C.
With `c1ccc(-c2nn3c(c2-c2ccc4nsnc4c2)CCC3)nc1` the melting point was 184 to 186 °C.
`CC(C)(NCCCn1ccnc1)c1ccc(-c2ccc(OCc3ccccc3)cc2)cc1` showed a melting point of 93 to 95 °C.
In the case of `CC(C)(C(N)=O)c1cn2nc(Cl)ccc2n1`, the melting point is reported as 194 to 195 °C.
`CCNc1c(S(=O)C(F)(F)F)c(C)nn1-c1c(Cl)cc(C(F)(F)F)cc1Cl` (stereo not given) showed a melting point of 76 °C.
With `CN(C)c1ncc(C(=O)N2CCOC(c3cccc(O)c3)C2)c(-c2ccccc2)n1` (stereo not given) the melting point was 140 °C.
Molecule `Brc1ccc(Br)c2nonc12` has a melting point of 88 to 92 °C.
With `Cc1ccc(Sc2nc(-c3ccc(Cl)cc3)c(CCC(=O)O)o2)cc1` the melting point was 160 to 161 °C.
Work on `O=C(O)c1[nH]c(=O)[nH]c(=O)c1[N+](=O)[O-]` yielded a melting point greater than 300 °C.
`O=C(Nc1ccc(N2CCOCC2=O)cc1)[C@H]1C[C@@H](O)CN1C(=O)Cc1ccc(Cl)cc1` showed a melting point of 141 °C.
Molecule `COCC1OC(n2cnc3c(NC4CCCC4)nc(Cl)nc32)C(O)C1O` (stereo not given) has a melting point of 124 to 126 °C.
For `COc1ccncc1Nc1nc(N2CCOCC2)nc(-n2c(C(F)F)nc3c(OC)cccc32)n1`, the melting point was 239 to 241 °C.
